assay: in vitro; settings: human, hela cells, % viability

SMILES | viability at 28.5 h, 10 µM
Cc1cnn(C2CCCN(C(=O)CC3C(=O)Nc4ccccc43)C2)c1 (centres unmarked) [CBK304930] | 81.7%
O=C(Cn1cnc2ccc(F)cc2c1=O)N1CCOC2CCCC21 (centres unmarked) [CBK304932] | 90.4%
CCNC(=O)C1(NC(=O)Cc2cn3cccc(C)c3n2)CCCCC1 [CBK304933] | 106%
CC(=O)N1CCCc2cc(NC(=O)NCCc3cnn(C)c3)ccc21 [CBK304937] | 88.7%
Cn1cc(C(=O)NC2CCN(c3ccc(C#N)cc3F)CC2)cn1 [CBK304939] | 83.7%
Cc1cnn(CC2CC2)c1NC(=O)Cc1csc(N2CCCC2=O)n1 [CBK304940] | 92.4%
CNC(=O)CN(CCO)Cc1cc(Br)ccc1F [CBK304941] | 108%
CCOc1ccnc(N2CCN(C(=O)CCc3ccsc3)CC2)n1 [CBK304942] | 99.4%
COc1ccc(C)cc1-n1ccc(C(=O)NC2(C#N)CCSC2)n1 (centres unmarked) [CBK304943] | 93.1%
Cc1cccn2c(=O)cc(CN3CCCC(N4CCNC4=O)C3)nc12 (centres unmarked) [CBK304947] | 88.4%
CC1CCC(C(N)=O)CN1C(=O)c1csc(COc2ccc(Cl)cc2)n1 (centres unmarked) [CBK304948] | 102%
COC(=O)c1cccn2cc(CN3CCOC4CCCCC43)nc12 (centres unmarked) [CBK304949] | 106%
Cc1ccc(C(=O)Nc2ncn(CC(=O)N3CCCCCC3)n2)s1 [CBK304951] | 98.2%
COc1ccccc1CC(=O)Nc1ncccc1OCCCC#N [CBK304952] | 91%
CCn1ncc2c(C(=O)NC(C)COC)cc(-c3cccs3)nc21 (centres unmarked) [CBK304955] | 87.1%
COC(=O)c1cccn2cc(CN3CCSC(C)C3)nc12 (centres unmarked) [CBK304958] | 97.4%
Cc1nc2c(c(C)c1CC(=O)NCc1cccc(C#N)c1)c(=O)[nH]n2C [CBK304959] | 92.4%
COc1cccc(CC(=O)Nc2ncccc2OCCCC#N)c1 [CBK304961] | 88%
Cc1nc(CN2CCCC(NCc3ccc(C(N)=O)cc3)C2)no1 (centres unmarked) [CBK304962] | 88.3%
COC(=O)C1CCCN1CC(=O)NCc1ccc(OCC(N)=O)cc1 (centres unmarked) [CBK304970] | 86.1%
CC1CC1C(=O)N(C)C1CCN(c2ncnc3ccccc23)CC1 (centres unmarked) [CBK304972] | 83.3%

SMILES | viability at 28.5 h, 10 µM
CC1CCc2c(sc3nc(CN4CCCCC4C)[nH]c(=O)c23)C1 (centres unmarked) [CBK304975] | 89.3%
CCCn1c(O)cc(=O)nc1SCC(=O)N1CCCc2ccccc21 [CBK304977] | 79.1%
Cc1cc(C(=O)N2CCc3c(sc4ncnc(N)c34)C2)c(C)s1 [CBK304980] | 88.5%
COc1cccc(CC(=O)Nc2ncccc2C)c1 [CBK304982] | 98.9%
Cc1ccc(NC(=O)CCc2c(C)nc(N3CCOCC3)[nH]c2=O)cc1 [CBK304985] | 98.2%
Cc1nc(N2CCOCC2)[nH]c(=O)c1CCC(=O)Nc1ccc(F)cc1 [CBK304990] | 91.1%
CC1CCc2sc(C(=O)N3CCC4(CC3)NC(=O)NC4=O)cc2C1 (centres unmarked) [CBK304992] | 89.1%
Cc1nc2nc(N)nn2c(C)c1CCC(=O)NCc1cccc(Cl)c1 [CBK304993] | 87.5%
CCCn1ccnc1SCC(=O)Nc1ccc(N(C)C)cc1 [CBK304996] | 112%
COC(=O)c1ccc2c(=O)n(CC(C)O)c(SC3CCOC3=O)nc2c1 (centres unmarked) [CBK304997] | 84.7%
Cc1ccc(Cc2cnc(NC(=O)CN3CSCC3=O)s2)cc1Cl [CBK305001] | 82%
CC1CCc2c(C(=O)N(C)CC(=O)NC(C)(C)C)csc2C1 (centres unmarked) [CBK305002] | 97.5%
CCOC(=O)c1cnc(SC(C)C(=O)N2CCc3ccccc32)nc1N (centres unmarked) [CBK305007] | 86.9%
COc1ccc(S(=O)(=O)N2CCOCC2)cc1C(=O)N1CCCC(C)C1 (centres unmarked) [CBK305011] | 110%
CC1CCCN(C(=O)c2cc(S(=O)(=O)N3CCOCC3)ccc2Cl)C1 (centres unmarked) [CBK305012] | 99.5%
CC(C)CC(=O)N1CCN(Cc2nc3sc4c(c3c(=O)[nH]2)CCC4)CC1 [CBK305014] | 86.4%
CN(C)c1nc(-c2ccc3c(c2)CCCN3S(C)(=O)=O)cs1 [CBK305016] | 87.1%
COC(=O)c1ccc2c(=O)n(CC(C)O)c(SC)nc2c1 (centres unmarked) [CBK305018] | 88%
Cc1csc2nc(CN3CCN(C(=O)c4ccccc4)CC3)cc(=O)n12 [CBK305019] | 110%
CS(=O)(=O)N1CCCc2cc(-c3csc(N4CCOCC4)n3)ccc21 [CBK305022] | 84.8%
O=C(NCCCc1ccccc1)c1cccc(S(=O)(=O)N2CCCC2)c1 [CBK305024] | 96.1%

SMILES | viability at 28.5 h, 10 µM
CCCC(=O)Nc1ccc(-c2csc(N3CCN(C)CC3)n2)cc1 [CBK305025] | 103%
CCCn1c(SCC(=O)NC2CCN(CC)CC2)nc2cc(Cl)ccc21 [CBK305027] | 104%
COc1ccccc1C(CNC(=O)Nc1cc(C)on1)N(C)C (centres unmarked) [CBK305028] | 97.8%
CC(Sc1nc2ccccc2c(=O)n1C)C(=O)N1CCOCC1 (centres unmarked) [CBK305031] | 88.5%
CC1CCCCN1S(=O)(=O)c1ccc(-n2ncc(Cl)c(Cl)c2=O)cc1 (centres unmarked) [CBK305035] | 90.6%
COC(=O)CNC(=O)c1cc(-c2ccc(C)s2)nc2c1cnn2C(C)C [CBK305040] | 99.5%
O=C(Cn1ccc(=O)[nH]c1=O)NCc1ccc(OCC(F)(F)F)cc1 [CBK305041] | 109%
N#Cc1ccnc(N2CCN(CC(=O)NCC(F)(F)F)CC2)c1 [CBK305042] | 95.1%
CC(=O)Nc1cccc(-n2nnnc2SCC(=O)N2CCNC2=O)c1 [CBK305043] | 88.5%
Cc1ccsc1C(=O)N1CCN(Cc2cc(=O)n3ccccc3n2)CC1 [CBK305044] | 102%
N#Cc1cccc(C(=O)NCCc2cn3c(n2)CCCC3)c1 [CBK305046] | 93.9%
COc1cccc(CC(=O)Nc2ncccc2O)c1 [CBK305047] | 95.3%
O=C(NCCN1CCc2ccccc2C1)C1CCCCC1 [CBK305049] | 115%
CCOC(=O)N1CCN(S(=O)(=O)c2ccc3c(c2)oc(=O)n3CC)CC1 [CBK305055] | 99%
Cn1ncc2c(=O)n(Cc3noc(-c4ccsc4)n3)cnc21 [CBK305056] | 99%
Cc1cc(NC(=O)NC2CC3(CCN(C)CC3)Oc3ccccc32)no1 (centres unmarked) [CBK305059] | 104%
CC(C)c1nc2c(n1C)CCN(Cc1cc(=O)n3ccccc3n1)C2 [CBK305061] | 92.6%
CCc1ccc2c(c1)C(CCNC(=O)CCc1ccsc1)C(=O)N2 (centres unmarked) [CBK305063] | 94.5%
Cn1cc(C2CCCN2C(=O)Cc2csc3ccccc23)cn1 (centres unmarked) [CBK305066] | 102%
Cc1cc(OCC(=O)N2CCC(C(=O)Nc3ccccc3)CC2)no1 [CBK305067] | 99.5%
Cc1ccnc2nc(C(=O)OCC(=O)Nc3cccc(C#N)c3)nn12 [CBK305068] | 100%

SMILES | viability at 28.5 h, 10 µM
CCN(CC)C(=O)CCc1nc2sc3c(c2c(=O)[nH]1)CCCC3 [CBK305069] | 87.6%
CCn1cnnc1SCC(=O)Nc1ccc(CN2CCOCC2)cc1 [CBK305072] | 97.4%
COc1cccc(C(=O)NCC(c2cccs2)N2CCOCC2)c1 (centres unmarked) [CBK305075] | 90.7%
CCOc1ncccc1NC(=O)N(CC1CCOC1)C1CC1 (centres unmarked) [CBK305077] | 94%
CS(=O)(=O)NC1CCN(CCc2ccc(F)c(F)c2)C1 (centres unmarked) [CBK305078] | 95.3%
CC(=O)Nc1cccc(C(=O)N2CCCC2c2ccncc2)c1 (centres unmarked) [CBK305080] | 96.5%
CCNC(=O)C1CCCN(Cc2ncc(C)c(OC)c2C)C1 (centres unmarked) [CBK305081] | 78%
CC(c1ccc(F)c(F)c1)N(C)C(=O)Cn1ncn(C)c1=O (centres unmarked) [CBK305083] | 80.2%
CCC(c1ccccc1)N1CCN(Cc2noc(C)n2)CC1 (centres unmarked) [CBK305084] | 90.3%
CCN(CC)C(=O)C1CCCN1C(=O)c1ccnc(N(C)C)c1 (centres unmarked) [CBK305086] | 99.7%
Cc1cccc(C2(CNC(=O)C3COCCO3)CCCCC2)c1 (centres unmarked) [CBK305087] | 109%
CC(NC(=O)N1CCSCC1)c1ccc2c(c1)CC(=O)N2 (centres unmarked) [CBK305093] | 96.7%
Cn1cc(CCC(=O)N2CCN(Cc3ccccn3)CC2)cn1 [CBK305094] | 113%
COc1ccc(CCN2CCCCC2Cn2cncn2)cc1 (centres unmarked) [CBK305095] | 108%
COc1ccccc1C(C)N(C)CCC(=O)Nc1cc(C)on1 (centres unmarked) [CBK305098] | 94.1%
Cn1nccc1CNCc1cc(Br)ccc1Cl [CBK305100] | 88.3%
CC(C)(C)OC(=O)N1CCCC(C(=O)NCc2ccco2)C1 (centres unmarked) [CBK305102] | 99.1%
CCc1nc(CNc2ccc(NC(C)=O)cc2Cl)cs1 [CBK305103] | 102%
CCc1ccc(CNC2CCN(Cc3cscn3)CC2)o1 [CBK305104] | 92.7%
Cc1n[nH]c(C)c1C1COCCN1C(=O)c1cccc(F)c1 (centres unmarked) [CBK305105] | 86.9%
